Experimental data as given in PMC9751290, “Design, synthesis, in vitro, in silico, and SAR studies of flavone analogs towards anti-dengue activity” (Scientific Reports, 2022).
“Also recorded” adds a separate entry of the source. Read-outs that look alike come from different tables or passages of the source.

Tests used:
DENV2 NGC = assay: Screening antiviral efficacy: viral inhibition at 10 µM in DENV2-infected LLC/MK2 cells, plaque titration; type: cell-based, DENV2 (New Guinea C strain); settings: for inhibition at 10 µM: Dengue virus
Description: The flavone analogs were preliminary screened for their viral inhibitory activity against DENV2 NGC (accession number NC_001474.2) in a LLC/MK2 (ATCC CCL-7™) cell-based system at the final concentration of 10 μM. […] On the other hand, the acylation of the hydroxy groups on the A-ring yielded mixed results.
LLC/MK2 cells (5 × 10^4) were seeded in 24-well plate and incubate at 37 °C under 5% CO2 overnight. Cells were infected with DENV2 NGC at a multiplicity of infection (M.O.I. of 0.1) and compounds at 10 µM were added and DMSO at 1% was used as control. Cultured plates were incubated for 1 h with gentle rocking every 15 min. Cells were washed with PBS, MEM supplemented with 1% FBS, 100 I.U./mL penicillin, and 100 µg/mL streptomycin, 10 mM HEPES was added in a presence of a compound at 10 µM. Cells were incubated at 37 °C with 5% CO2 for 3 days. Supernatants were collected to determine viral titers by plaque titration assay as previously described. The selected compounds were further analyzed for an effective concentration (EC50).

[1] = Cellular toxicity in LLC/MK2 cells (MTS assay); type: cell-based; settings: rhesus monkey
Description: Cytotoxicity of the compounds was also accessed at the concentration of 10 µM in parallel with the viral inhibition screening. LLC/MK2 cells (1 × 10^4) were seeded in 96-well plate and incubated at 37 °C under 5% CO2 overnight; compounds were added after 24 h, and then incubated for 2 days. DMSO at 1% was used as mock treatment. Cytotoxicity was measured using CellTiter 96® Aqueous One Solution Cell Proliferation Assay (MTS) kit (Promega, Wisconsin-Madison, WI, USA) according to the manufacturer’s instruction and analyzed by EnSight Multimode Plate Reader spectrophotometry at A450nm. (Perkin Elmer, Waltham, MA, USA).

DENV2 [2] = assay: Antiviral efficacy (EC50) against DENV2 in LLC/MK2 cells, plaque titration; type: cell-based, DENV2 (New Guinea C strain); settings: for EC50: Dengue virus, DENV2, LLC/MK2 cells, three independent experiments, read-out: EC50 (50% effective concentration against DENV2); for fold increase in activity compared with 8-bromobaicalein 5f / fold more active than the original baicalein 5a: EC50 against DENV2
Description: LLC/MK2 (ATCC® CCL-7), and C6/36 (ATCC® CRL-1660) cell lines were propagated and maintained as previously described[18],[29],[31]. Effective concentration (EC50) of the compounds against the DENV2 were tested using LLC/MK2 cells[18],[29]. Briefly, cells were seeded overnight and infected with each virus at the multiplicity of infection (M.O.I.) of 0.1 for 1 h. The compound was added during and after infection, and cells were incubated for 72 h. Supernatants were collected for plaque titration. EC50 results were means and standard errors of three independent experiments.

dengue and Zika virus = settings: cited from earlier work
DENV2 [3] = test system: DENV2; parameters: method as in PMID 23140177, PMID 29057920; settings: data according to literature (footnote f); read-out: EC50 (50% effective concentration against DENV2); cited from earlier work
[4] = test system: DENV2 replication in Vero cells; parameters: method as in PMID 31441148, PMID 23140177; settings: cited from earlier work
[5] = Cellular toxicity in LLC/MK2 cells (MTS assay); type: cell-based; settings: rhesus monkey; remark: listed apart in the source
dengue virus = test system: dengue virus; parameters: method as in PMID 28389141; settings: mice administered with luteolin; cited from earlier work
[6] = 10 μM, DENV2 NGC-infected LLC/MK2 cells, NA = not active, read-out: %Inhibition (%viral inhibition against DENV2)
[7] = 10 μM, read-out: %Viability in LLC/MK2 cell
[8] = DENV2, LLC-MK2, read-out: %Inhibition (%viral inhibition against DENV2)

SMILES | inhibition at 10 µM (DENV2 NGC; [6]) [%] | viability at 2 days, 10 µM [1] [%] | other results
COc1cc2oc(-c3ccc([N+](=O)[O-])cc3)cc(=O)c2c(O)c1O [5r, 5,6-Dihydroxy-7-methoxy-4′-nitroflavone] | 22.2 | 91.6 ± 0.89 | melting point: 174 to 178 °C
O=c1cc(-c2ccc([N+](=O)[O-])cc2)oc2cc(O)c(O)c(O)c12 [5n, 5,6,7-Trihydroxy-4′-nitroflavone] | 100 | 78.5 ± 9.87 | EC50 (DENV2 [2]): 4300 ± 560 nM
CCCCCCCCCCCCOc1c(Br)c(O)c2c(=O)cc(-c3ccccc3)oc2c1Br [IV] | – | – | EC50 (dengue and Zika virus): 4170 nM
COc1cc2oc(-c3ccc([N+](=O)[O-])cc3)cc(=O)c2c(OC)c1OC [5k, 5,6,7-Trimethoxy-4′-nitroflavone] | 70 | 101 ± 1.97 | –
COc1cc2oc(-c3ccc(Br)cc3)cc(=O)c2c(O)c1OC [5p, 4′-Bromo-5-hydroxy-6,7-dimethoxyflavone] | 64.8 | 96.8 ± 5.28 | –
CCC(=O)Oc1c(OC(=O)CC)c(OC(=O)CC)c2c(=O)cc(-c3ccccc3)oc2c1Br [5h, 8-Bromo-5,6,7-tripropionoxyflavone] | – | 84.5 ± 6.56 | %Inhibition (%viral inhibition against DENV2) (DENV2 NGC; 10 μM, DENV2 NGC-infected LLC/MK2 cells, NA = not active): inactive; melting point: 113 to 115 °C
COc1cc2oc(-c3ccc(N)cc3)cc(=O)c2c(OC)c1OC [5l, 4′-Amino-5,6,7-trimethoxyflavone] | 62 | 93 ± 2.36 | –
COc1cc2oc(-c3ccccc3)cc(=O)c2c(OC)c1OC [5i, 5,6,7-Trimethoxyflavone] | 44.4 | 96.8 ± 11.9 | –
O=c1cc(-c2ccccc2)oc2cc(O)ccc12 [2a, 7-hydroxyflavone] | 37.5 | – | viability at 2 days, 10 µM [1, 7]: 122 ± 7.21%
O=c1cc(-c2ccccc2)oc2c(Br)c(O)c(O)c(O)c12 [5f, 8-Bromo-5,6,7-trihydroxyflavone] | – | 73.4 ± 14.8 | inhibition at 10 µM (DENV2 NGC; [8]): 100%; EC50 (DENV2 [3]): 880 ± 140 nM
COc1cc(O)c2c(=O)cc(-c3ccccc3)oc2c1 [4b, 5-Hydroxy-7-methoxyflavone] | 16.7 | 97.5 ± 1 | –
COc1cc2oc(-c3ccccc3)cc(=O)c2c(O)c1OC [5b, 5-Hydroxy-6,7-dimethoxyflavone] | 80 | 97.5 ± 2.47 | –
O=c1cc(-c2ccccc2)oc2ccc(O)cc12 [1a, 6-hydroxyflavone] | 90 | 69.5 ± 14.3 | –
O=c1cc(-c2ccccc2)oc2c([N+](=O)[O-])c(O)cc(O)c12 [4e, 5,7-Dihydroxy-8-nitroflavone] | – | – | inhibition at 10 µM (DENV2 NGC; [8]): 33.3%; viability at 2 days, 10 µM [1, 7]: 52.5 ± 2.59%
O=c1cc(-c2ccccc2)oc2cc(O)c(O)c(O)c12 [5a, baicalein] | – | – | inhibition at 10 µM (DENV2 NGC; [8]): 75%; viability at 2 days, 10 µM [1, 7]: 92.9 ± 1.44%; EC50 (DENV2 [3]): 23900 nM; IC50 [4]: 23900 nM; selectivity index (SI) [4]: 17.8
CCC(=O)Oc1ccc2c(=O)cc(-c3ccccc3)oc2c1 [2c, 7-Propionoxyflavone] | 37.5 | 115 ± 1.55 | –
CCC(=O)Oc1cc2oc(-c3ccccc3)cc(=O)c2c(O)c1OC(=O)CC [5e, 5-Hydroxy-6,7-dipropionoxyflavone] | 91.7 | 89.6 ± 5.95 | EC50 (DENV2 [2]): 68 ± 40 nM; fold increase in activity compared with 8-bromobaicalein 5f (DENV2 [2]): over tenfold; also recorded: more than tenfold; fold more active than the original baicalein 5a (DENV2 [2]): over 300 fold; melting point: 132 to 134 °C; CC50 at 2 days [5]: > 100000 nM

SMILES | inhibition at 10 µM (DENV2 NGC; [6]) [%] | viability at 2 days, 10 µM [1] [%] | other results
O=c1cc(-c2ccc(Br)cc2)oc2cc(O)c(O)c(O)c12 [5m, 4′-Bromo-5,6,7-trihydroxyflavone] | 100 | 90 ± 6.61 | EC50 (DENV2 [2]): 520 ± 120 nM
O=c1cc(-c2ccc(O)c(O)c2)oc2cc(O)cc(O)c12 [luteolin] | – | – | reduction of the virus load (dengue virus): tenfold reduction
CCC(=O)Oc1cc2oc(-c3ccccc3)cc(=O)c2c(OC(=O)CC)c1OC(=O)CC [5d, 5,6,7-Tripropionoxyflavone] | – | – | inhibition at 10 µM (DENV2 NGC; [8]): 90%; EC50 (DENV2 [2]): 70 ± 15 nM; fold increase in activity compared with 8-bromobaicalein 5f (DENV2 [2]): over tenfold; also recorded: more than tenfold; fold more active than the original baicalein 5a (DENV2 [2]): over 300 fold; viability at 2 days, 10 µM [1, 7]: 83.8 ± 2.61%; CC50 at 2 days ([5]; LLC/MK2 cells, read-out: CC50): > 100000 nM
COc1cc2oc(-c3ccc([N+](=O)[O-])cc3)cc(=O)c2c(O)c1OC [5q, 5-Hydroxy-6,7-dimethoxy-4′-nitroflavone] | 98.2 | 84.7 ± 5.07 | EC50 (DENV2 [2]): 4520 ± 760 nM; melting point: 145 to 150 °C
O=c1cc(-c2ccccc2)oc2c(O)c(O)ccc12 [3a, 7,8-dihydroxyflavone] | – | – | inhibition at 10 µM (DENV2 NGC; [8]): 58.3%; viability at 2 days, 10 µM [1, 7]: 79.4 ± 3.2%
O=c1cc(-c2ccccc2)oc2cc(OCc3ccccc3)cc(O)c12 [4c, 7-Benzyloxy-5-hydroxyflavone] | – | 86.1 ± 3.05 | –
COc1ccc2oc(-c3ccccc3)cc(=O)c2c1 [1b, 6-Methoxyflavone] | – | 95.2 ± 8.12 | inhibition at 10 µM (DENV2 NGC; [8]): 77%
Nc1ccc(-c2cc(=O)c3c(O)c(O)c(O)cc3o2)cc1 [5o, 4′-Amino-5,6,7-trihydroxyflavone] | – | 109 ± 2.53 | –
O=c1cc(-c2ccccc2)oc2c3c(ccc12)OCO3 [3b, 7,8-Dioxoloflavone] | – | 96.6 ± 1.01 | –
COc1cc2oc(-c3ccc(Br)cc3)cc(=O)c2c(OC)c1OC [5j, 4′-Bromo-5,6,7-trimethoxylflavone] | 70.4 | 101 ± 11.1 | –
O=c1cc(-c2ccccc2)oc2cc(O)cc(O)c12 [4a, chrysin] | 16.7 | 84.8 ± 2.03 | –
CCC(=O)Oc1ccc2oc(-c3ccccc3)cc(=O)c2c1 [1c, 6-Propionoxyflavone] | 73 | 89.18 ± 0.78 | –
O=c1cc(-c2ccccc2)oc2c(Br)c(O)c(Br)c(O)c12 [4d, 6,8-Dibromo-5,7-dihydroxyflavone] | – | 101.1 ± 0.44 | inhibition at 10 µM (DENV2 NGC; [8]): 83%; EC50 (DENV2 [3]): 1470 ± 860 nM
Nc1c(O)cc(O)c2c(=O)cc(-c3ccccc3)oc12 [4f, 8-Amino-5,7-dihydroxyflavone] | – | 93.4 ± 3.29 | –
CC(=O)Oc1c(OC(C)=O)c(OC(C)=O)c2c(=O)cc(-c3ccccc3)oc2c1Br [5g, 5,6,7-Triacetoxy-8-bromoflavone] | 100 | 50.9 ± 3.22 | EC50 (DENV2 [2]): 260 ± 140 nM
CC(=O)Oc1cc2oc(-c3ccccc3)cc(=O)c2c(OC(C)=O)c1OC(C)=O [5c, 5,6,7-Triacetoxyflavone] | – | – | inhibition at 10 µM (DENV2 NGC; [8]): 100%; EC50 (DENV2 [2]): 410 ± 560 nM; viability at 2 days, 10 µM [1, 7]: 107 ± 7.34%
COc1ccc2c(=O)cc(-c3ccccc3)oc2c1 [2b, 7-Methoxyflavone] | – | 84.5 ± 3.34 | inhibition at 10 µM (DENV2 NGC; [8]): 37.5%
